Measured values: patent publication US20130131121A1, “ANTI-VIRAL AGENT” (priority 2007, published 2013)
≈ marks a conversion by molar mass, not a printed value.

What was measured:
[1] = tested on: human cytomegalovirus (HCMV); assay: Suppression of HCMV virus production in infected MRC-5 cells (plaque technique); assay type: cell-based; conditions: for EC50: Human betaherpesvirus 5, MRC5, HCMV proliferation in MRC-5 cells, read-out: EC50 (50% effective concentration); for SI (selection index): IC50/EC50
[2] = Cytotoxicity (IC50) of components separated from Kumazasa extract; conditions: human, MRC-5 human fetal lung fibroblast cells
in vitro = conditions: human
[3] = tested on: influenza type A virus (A/Hiroshima/52/2005, H3N2); assay: Plaque technique in MDCK cells, influenza type A virus; assay type: cell-based; conditions: tricin concentration of 0.3 μg/ml
[4] = tested on: influenza type B virus (B/Malaysia/2506/2004); assay: Plaque technique in MDCK cells, influenza type B virus; assay type: cell-based; conditions: tricin concentration of 0.3 μg/ml

| SMILES | EC50 [1] | SI (selection index) [1] | IC50 [2] | IC50 (in vitro) | proliferation of the virus (virus titer) ([1]; tricin concentration of 111 μg/ml, FIG. 4) | proliferation suppression ratio (pt/pc×100%) [3] | proliferation suppression ratio (pt/pc×100%) [4] |
| --- | --- | --- | --- | --- | --- | --- | --- |
| COc1cc(C=O)ccc1O [Vanillin, vanillin] | 48 µg/mL (≈ 315 µM) | 4.5 | 215 µg/mL (≈ 1410 µM) |  |  |  |  |
| O=Cc1ccc(O)cc1 [p-hydroxybenzaldehyde] | 12.8 µg/mL (≈ 105 µM) | 23.8 |  | 305 µg/mL (≈ 2500 µM) |  |  |  |
| O=C(O)/C=C/c1ccc(O)cc1 [p-coumaric acid, reference compound] | 8.2 µg/mL (≈ 50 µM) | 22.8 | 187 µg/mL (≈ 1140 µM) |  |  |  |  |
| Oc1cccnc1 [3-hydroxy pyridine, 3-hydroxypyridine] | 3.4 µg/mL (≈ 35.8 µM) | 77.4 | 263 µg/mL (≈ 2770 µM) |  |  |  |  |
| Nc1nc(O)c2ncn(COC(CO)CO)c2n1 [Ganciclovir, reference compound] | 0.3 to 0.8 µg/mL (≈ 1.18 to 3.13 µM) |  |  |  |  |  |  |
| COc1cc(-c2cc(=O)c3c(O)cc(O)cc3o2)cc(OC)c1O [Tricin, 5,7,4′-trihydroxy-3′,5′-dimethoxyflavone] | 1.7 µg/mL (≈ 5.15 µM) | 1205.8 | 2050 µg/mL (≈ 6210 µM) |  | virtually completely inhibited | 52% | 48% |
